Columns and labels:
GST-Plek2 [1] = molecular target: T1, GST-Plek2 (Homo sapiens, UniProt Q9NYT0); test: isothermal titration calorimetry (ITC) of NUP-17d and its enantiomers with Plek2; assay type: binding; settings: PBS with 0.5% DMSO, 200 μM compound into 20 μM GST-Plek2
T1 construct: made in house
T1 sequence (Q9NYT0 1-353): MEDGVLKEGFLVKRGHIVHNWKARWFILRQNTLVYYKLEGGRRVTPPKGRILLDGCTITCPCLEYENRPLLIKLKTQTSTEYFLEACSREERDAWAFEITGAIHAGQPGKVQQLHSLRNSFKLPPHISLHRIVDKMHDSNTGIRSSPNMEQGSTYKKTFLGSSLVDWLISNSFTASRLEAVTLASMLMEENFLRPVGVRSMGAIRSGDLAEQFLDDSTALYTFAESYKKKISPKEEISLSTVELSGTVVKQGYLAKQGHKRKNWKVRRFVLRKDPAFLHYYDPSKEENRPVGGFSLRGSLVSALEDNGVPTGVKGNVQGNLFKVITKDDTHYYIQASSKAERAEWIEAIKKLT
Procedure: (§1) FIG. 4. NUP-17 directly targets and binds to Plek2. (A) Plek2 was overexpressed in mouse fetal liver Ter119 negative erythroblasts. NUP-17 (40 μM) were added in the control cells and Plek2 overexpressed cells. Cell number was calculated 48 hours after culture. (B) Plek2 was overexpressed in Cos-7 cells. Phalloidin 647 was used to stain actin in the indicated cells. 10 μM of NUP-17 was used. (C) Quantitative analysis of B. (D) ITC experiments using the microCal ITC200 instrument. 200 μM NUP-17 was titrated into a solution of 20 μM GST control or GST-Plek2. *P<0.05; *** P<0.001. 17 represents NUP-17.
(§2) FIG. 17. Isothermal titration calorimetry (ITC) experiments of NUP-17d and its enantiomers. -17-d: delta H=−1.9 kcal/mol delta S=+22.9 cal/molK; -17-1b: delta H=−2.2 kcal/mol delta S=+22.8 cal/molK; -17-2b: delta H=−1.5 kcal/mol delta S=+24.3 cal/molK; -17-1a: delta H=−5.3 kcal/mol delta S=+7.3 cal/molK; and -17-2a: delta H=−4.2 kcal/mol delta S=+13.9 cal/molK.
(§3) To confirm that the inhibitory effect of NUP-17 on the proliferation and differentiation of fetal liver erythroid cells is due to Plek2 binding, we overexpressed Plek2 in the fetal liver cells and treated the cells with NUP-17. […] In addition, we also overexpressed Plek2 in Cos-7 cells, which induced prominent lamellipodia formation as previously reported (13).
Biophysical Assays and Counter-Screening. To confirm the interaction of the optimized compounds with Plek2, we will perform isothermal calorimetry (ITC) using the recombinant protein GST-Plek2 or Flag-tagged Plek2 we have produced. Specifically, MicroCal ITC200 instrument (GE Healthcare) with the jacket temperature will set at 25° C. The protein and our compound solutions will be prepared in PBS with 0.5% DMSO. Titrations of 200 μM compound into 20 μM GST-Plek2 solutions will be sufficient for 15 injections of 2.5 μl each with 120 seconds spacing between injections and a mixing speed at 900 rpm. An initial 0.1 μl injection will subsequently be removed during data analysis. A control experiment will be performed by titrating 200 μM compound into a solution of 20 μM GST. […]

[2] = tested on: Epo-induced myeloproliferation in wild-type mice; test: Erythropoietin (Epo) injection mouse model; assay type: in vivo
phosphorylation of Akt = test: Akt phosphorylation in erythropoietin-treated bone marrow lineage negative cells (Western blot); assay type: cell-based, mouse; settings: wild type bone marrow lineage negative cells, 10 μM
Procedure: (§4) FIG. 7. Plek2 binds to PtdIns(3,4)P2 and is critical for the PI3K signaling pathway. […] (B) Plek2 membrane association and cell spreading are PI3K dependent. Jurkat cells expressing GFP fused to the amino-terminus of wild-type Plek2 were plated on fibronectin. Real-time confocal imaging of live cells was performed. Shown is a cell expressing Plek2 before and after inhibition of PI3K with 100 nM wortmannin. (C) Bone marrow lineage negative cells from the indicated mice were treated with 2 units erythropoietin for the indicated amount of time (minutes). The level of Phospho-Akt and total Akt were analysis by Western blot assays. (D) Same as C except wild type bone marrow cells were used. 10 μM NUP-17d was used. The levels of the indicated proteins were analyzed by Western blot assays. (E) Kaplan-Meier survival analysis of indicated mice. Ptenfl/fl mice were crossed with Mx-Cre and Plek2 whole body knockout mice. The deletion of Pten in the hematopoietic tissues was induced by poly-IC injection. N=5 in each group. P=0.0067 between Ptenfl/flMx-Cre and Ptenfl/flMx-Cre, Plek2 KO. (F) Hematoxylin and eosin stain of the lungs from representative mice in E. Scale bar: 100 μm.
To further determine the role of Plek2 in PI3K pathway, we overexpressed GFP-fusion Plek2 in Jurkat cells. […]

JAK2V617F knockin mice = test: JAK2V617F knockin MPN mouse model; assay type: in vivo; settings: 25 mg/kg once every two days, one month
Procedure: FIG. 15A and FIG. 15B. Compound NUP-17d ameliorates myeloproliferation and thrombosis in JAK2^V617F knockin mice. FIG. 15A. RBC and WBC count of indicated mice after NUP-17d treatment. Two-month-old JAK2^V617F knockin mice were treated with NUP-17d once every two days for three weeks. Wild type (WT) littermate control mice were used for comparison *P<0.05; ** P<0.01; *** P<0.001. FIG. 15B. H&E stain of the spleen and lung sections. Inserted panels with high magnification reveal vascular occlusions. Scale bars: 100 μm.
We tested the effects of Plek2 inhibitors in the JAK2^V617F knockin MPN mouse model. (See FIGS. 15A and 15B). The same dosage and dosing schedule of NUP-17d (25 mg/kg, once every two days) were applied to JAK2^V617F knockin mice as those applied to the Epo model. We have treated the mice for one month. […] (See FIG. 15A). […] (See FIG. 15B).

[3] = tested on: mouse fetal liver erythroid progenitors; test: Proliferation of mouse fetal liver erythroid progenitors cultured in erythropoietin containing medium (Plek2 functional screening system); assay type: cell-based; settings: mouse fetal liver erythroblasts, Epo medium
Procedure: FIG. 3. NUP-17 inhibits Plek2 function in fetal liver erythropoiesis. (A) Mouse Ter119 (a mature erythroid cell marker) negative erythroblasts were purified and cultured for two days (D0-D2). The protein levels of Plek2 and Hsc70 loading control were analyzed by a Western blot assay. (B) The structure of NUP-17. (C-D) The proliferation and enucleation (DNA negative) profiles of cells from A treated with different concentration of NUP-17 for 48 hours. (E) Simulated Plek2 DEP domain interaction with NUP-17 using Schrodinger software. Amino acids that are potentially critical for the interaction are highlighted in yellow. *P<0.05; ** P<0.01; *** P<0.001.
FIG. 4. NUP-17 directly targets and binds to Plek2. (A) Plek2 was overexpressed in mouse fetal liver Ter119 negative erythroblasts. NUP-17 (40 μM) were added in the control cells and Plek2 overexpressed cells. Cell number was calculated 48 hours after culture. (B) Plek2 was overexpressed in Cos-7 cells. Phalloidin 647 was used to stain actin in the indicated cells. 10 μM of NUP-17 was used. (C) Quantitative analysis of B. (D) ITC experiments using the microCal ITC200 instrument. […]
FIG. 5. […] (A) NUP-17d was analyzed for the inhibitory effects on fetal liver erythroblasts as in FIG. 3. […] (D) Quantitative analysis of C. **P<0.01; *** P<0.001. […]
FIG. 11. […] Analogs of NUP-17d were analyzed for their effect on fetal liver erythroblast proliferation as in FIG. 3. […]

GST-Plek2 [4] = molecular target: T1, GST-Plek2; test: Isothermal titration calorimetry (ITC) binding to GST-tagged Plek2; settings: FIG. 17
Procedure: as §1, §2, §3
Biophysical Assays and Counter-Screening. […]

Plek2 = molecular target: T2, Plek2 (Homo sapiens, UniProt Q9NYT0); test: Plek2-lipid binding (protein-lipid overlay); settings: data not shown
T2 construct: we examined the ability of full-length protein to adhere to various phospholipids
T2 sequence (Q9NYT0 1-353): T1 sequence (Q9NYT0 1-353)
Procedure: as §4
Rationale and Preliminary Data. […] To define the lipid binding specificity of Plek2, we examined the ability of full-length protein to adhere to various phospholipids.

[5] = tested on: Plek2-overexpressed Cos-7 cells; test: Lamellipodia formation assay in Plek2-overexpressed Cos-7 cells (phalloidin actin stain); assay type: cell-based; settings: 10 μM
Procedure: as §1
FIG. 5. Identification of a potent analog of NUP-17. (A) NUP-17d was analyzed for the inhibitory effects on fetal liver erythroblasts as in FIG. 3. Indicated doses were used. (B) The structure of NUP-17d. (C) Plek2 was overexpressed in Cos-7 cells. Phalloidin 647 was used to stain actin in the indicated cells. 10 μM of NUP-17 and NUP-17d were used. (D) Quantitative analysis of C. **P<0.01; *** P<0.001. 17 and 17d represent NUP-17 and NUP-17d, respectively.
To confirm that the inhibitory effect of NUP-17 on the proliferation and differentiation of fetal liver erythroid cells is due to Plek2 binding, we overexpressed Plek2 in the fetal liver cells and treated the cells with NUP-17. […]

[6] = FIG. 17, general method: MicroCal ITC200, 25° C
[7] = 40 mg/kg every 2 days for 8 days

## CN1CCN([C@@H](c2ccc(Cl)cc2)[C@H](O)C(=O)c2c[nH]c3ccccc23)CC1 [17d-1b]
GST-Plek2 [1]; [6]
  Kd: 0.357 µM

## CN1CCN([C@H](c2ccc(Cl)cc2)[C@@H](O)C(=O)c2c[nH]c3ccccc23)CC1 [17d-1a]
GST-Plek2 [1]; FIG. 17, value printed in uM, general method: MicroCal ITC200, 25° C
  Kd: 2.12 µM

## CN1CCN(C(c2ccc(Cl)cc2)C(O)C(=O)c2c[nH]c3ccccc23)CC1 (stereo not shown) [17d]
GST-Plek2 [1]; [6]
  Kd: 0.4 µM

## CN1CCN(C(c2ccc(Cl)cc2)C(O)C(=O)c2c[nH]c3ccccc23)CC1 (stereo not shown) [NUP-17d]
[2]; [7]
  Epo-induced erythrocytosis in spleen red pulp and lung vasculature (histology): markedly ameliorated
  Epo-induced leukocytosis: significantly reduced
  Epo-induced reticulocytosis: significantly reduced
  Epo-induced splenomegaly: significantly reduced
  Epo-induced vascular occlusions: significantly reduced
[2]; 40 mg/kg, 2 days, preliminary studies
  tolerability: well-tolerated
[2]; Epo 5,000 U/kg every 2 days, compound 40 mg/kg every 2 days for 8 days, 3 weeks
  red blood cell count: did not significantly reduce
[2]; during the experiments
  hematologic or other abnormalities in treated mice: no hematologic or other abnormalities
Phosphorylation of Akt
  phosphorylation of Akt: significantly inhibited
JAK2V617F knockin mice
  WBC count: largely normalized
  red blood cell count: significantly reduced
  side effects with the treatment: no gross side effects
  spleen size and extramedullary erythropoiesis: markedly reduced
  vascular occlusions in the lungs: dramatically ameliorated
[3]
  IC50: < 10000 nM
GST-Plek2 [4]
  ITC delta H: -1.9 kcal/mol
  ITC delta S: +22.9 cal/molK
Plek2
  disruption of Plek2-lipid binding: did not disrupt Plek2-lipid binding
[5]
  reversal of lamellipodia in Plek2 overexpressed Cos-7 cells: more potent inhibition
